Test results from article PMC10609873, “Antidiabetic, Antihyperlipidemic, and Antioxidant Evaluation of Phytosteroids from Notholirion thomsonianum (Royle) Stapf” (Plants, 2023).
In brackets after ≈: the same amount, converted by molar mass.

Experiments:
[1] = test system: alloxan-induced diabetic rats; assay: body weight of fasting rats during treatment; type: in vivo; details: NtSt01 1.0 mg/kg, glibenclamide 0.5 mg/kg
Procedure: Group 3: This group was the alloxan-induced diabetic group, which was treated with 0.5 mg/kg of the standard drug, glibenclamide.
Group 4: This group was the alloxan-induced diabetic group, which was treated with 1.0 mg/kg of NtSt01 intraperitoneally.

[2] = test system: alloxan-induced diabetic rats; assay: vital organ weights of fasting rats after treatment; type: in vivo; details: after the 28-day experiment; NtSt01 1.0 mg/kg, glibenclamide 0.5 mg/kg
Source text: The experimental rats were purchased from the Breeding House of National Institute Health, Islamabad, Pakistan. The average weights of these rats ranged from 220 to 250 g. The animals were handled as per the guidelines of the University of […] animals By-Laws 2008 (Scientific Procedure Issue I) under the approval of the ethical committee via letter No. DREC-140/B. The food, water, and light/dark cycles provided to animals were observed by the ethical committee. The animals were euthanized as per the AVMA guidelines version 2020. The animals were subjected to slow exposure of halothane vapors to induce anesthesia. There was a gradual increase in the dosage of halothane vapors, which eventually euthanized the animals. […] Group 3: […] Group 4: […]

[3] = test system: alloxan-induced diabetic rats; assay: lipid profile (antilipidemic effect); type: in vivo; details: NtSt01 1.0 mg/kg, glibenclamide 0.5 mg/kg; for LDL / S.Cholesterol: reference range 10–54; for S.Triglycerides: reference range 26–145; for HDL: reference range up to 50
Procedure: Standard methods were used for the analysis of total cholesterol, serum triglycerides, low-density lipoprotein (LDL), and high-density lipoprotein (HDL). Briefly, […] of serum sample was added to […] solution of triglyceride. The mixture was incubated for 10 min at 37 °C and the absorbance was recorded at 546 nm. To monitor blood cholesterol, diagnostic kits were utilized following the specifications of the manufacturer. […] For HDL concentration determination, 200 µL of serum sample and 500 µL of HDL solution were combined, and the mixture was allowed to stand at room temperature for 5 min. Again, the mixture was mixed and subjected to further centrifugation for 5 min, followed by supernatant collection. Then, 50 µL of supernatant of HDL was added to 500 µL of solution of cholesterol; the mixture was incubated at 37 °C for 5 min. Then, at 546 nm, the sample absorbance was measured. Similarly, LDL was determined in all groups following the manufacturer’s specifications. LDL = Total cholesterol […] − Triglycerides/5(4)

[4] = test system: alloxan-induced diabetic rats; assay: renal and liver function tests (biochemical profile of blood); details: NtSt01 1.0 mg/kg, standard glibenclamide; for S.Creatinine: reference range 0.4–0.8; for SGPT(ALT): reference range 17–30; for S.ALK.Phosphatase: reference range 30–130; for S.bilurubin: reference range up to 1.0
Procedure: Renal functions tests were performed to determine blood urea and serum creatinine [38]. To determine blood urea, enzyme reagent 1 (1000 µL) and 10 µL of serum were mixed together and incubated for 5 min at 25 °C, followed by the addition of 1000 µL of reagent 2 to the mixture. After 5 min, the absorbance was recorded at 578 nm.
Serum glutamate pyruvate transaminase (SGPT/ALT), alkaline phosphatase (ALP), and bilirubin tests were performed following standard protocols using micro lab 300 and tecno plus biochemistry analyzers [39]. To perform the SGPT/ALT test, 50 µL of serum sample was added to 500 µL of reagent (400 µL of reagent 1 and 100 µL of reagent 2). […] To determine ALP, a kit was used following the manufacturer’s specifications: 10 µL of serum sample was added to 500 µL of reagent (400 µL of reagent 1 and 100 µL of reagent 2). […] Similarly, the concentration of bilirubin was evaluated using standard protocols. Four types of reagents, R1, R2, R3, and R4, were used in this test. R2 (25 µL) was added to R1 (100 µL). After this, 100 µL of serum sample and 500 µL of R3 were added and allowed to stand at 25 °C for 5 min. Then, 500 µL of R4 was added; at 25 °C for 5 min, the mixture was incubated. The absorbance of the sample was recorded at 546 nm.

[5] = test system: α-amylase; assay: in vitro α-amylase inhibition; type: biochemical
Procedure: The inhibitory activity of our compounds against alpha-amylase enzymes was determined as per the previously reported protocols. Test samples of 100 µL were mixed with an enzyme solution (200 µL) and 100 µL of phosphate buffer (pH 6.9, 2 mM). The mixture was then incubated at 25 °C for 20 min, followed by the addition of 100 µL of starch solution (1%). The same procedure was followed for positive controls, where phosphate buffer was added instead of […] (200 µL). After 5 min of incubation, 3,5-dinitrosalicylic acid reagent (500 µL) was added to the test samples and control group. The mixtures were incubated again for 10 min; at 580 nm, the absorbance was recorded using a spectrophotometer. The alpha-amylase percent inhibition was calculated as:(2) % Amylase inhibition=1−Test sample abs./Control abs.×100

[6] = DPPH free radical scavenging assay
Procedure: To evaluate the antioxidant potential of our compounds, the DPPH free radical scavenging assay developed by Brand William was used. The DPPH solution was made by dissolving 20 mg of DPPH in 100 mL of methanol, and its absorbance at 517 nm was adjusted to 0.75. Then, 2 mL of DPPH solution was added to 2 mL of sample dilutions ranging from 31.25 to 500 µg/mL, and the mixture was incubated at room temperature in the dark for 15 min. […] (3) % Inhibition=Control abs.−Sample abs./Control abs.×100

[7] = molecular target: α-glucosidase (Saccharomyces cerevisiae, UniProt P53341); assay: in vitro α-glucosidase inhibition; type: biochemical
Procedure: The alpha-glucosidase inhibitory effects of our compounds were determined via a reported protocol. Sample dilutions (50 µL) and 100 µL of α-glucosidase solution (0.5 U/mL) were mixed. Then, 600 μL of phosphate buffer (0.1 M, pH 6.9) was added, and the mixture was incubated at 37 °C for 15 min. After this, 5 mM substrate (p-nitrophenyl α-D-glucopyranoside) solution (20 µL) in 0.1 M phosphate buffer (pH 6.9) was added and again incubated under the same conditions. Sodium carbonate was added to stop the reaction; at 405 nm, the absorbance was noted using a spectrophotometer. A mixture without α-glucosidase served as the blank, and a mixture without the test compound served as the control. The percent enzyme inhibition was calculated as:(1) % Alpha glucosidase inhibition=Control abs.−Sample abs./Control abs.×100

[8] = test system: rats; assay: acute toxicity study in rats; type: in vivo; details: dose started at 200 and increased up to 2000 mg/kg body weight
Procedure: In experimental animals, acute toxicity studies were performed to determine the safe dose of our test compounds for in vivo studies.

Chain of α-glucosidase (P53341 whole entry): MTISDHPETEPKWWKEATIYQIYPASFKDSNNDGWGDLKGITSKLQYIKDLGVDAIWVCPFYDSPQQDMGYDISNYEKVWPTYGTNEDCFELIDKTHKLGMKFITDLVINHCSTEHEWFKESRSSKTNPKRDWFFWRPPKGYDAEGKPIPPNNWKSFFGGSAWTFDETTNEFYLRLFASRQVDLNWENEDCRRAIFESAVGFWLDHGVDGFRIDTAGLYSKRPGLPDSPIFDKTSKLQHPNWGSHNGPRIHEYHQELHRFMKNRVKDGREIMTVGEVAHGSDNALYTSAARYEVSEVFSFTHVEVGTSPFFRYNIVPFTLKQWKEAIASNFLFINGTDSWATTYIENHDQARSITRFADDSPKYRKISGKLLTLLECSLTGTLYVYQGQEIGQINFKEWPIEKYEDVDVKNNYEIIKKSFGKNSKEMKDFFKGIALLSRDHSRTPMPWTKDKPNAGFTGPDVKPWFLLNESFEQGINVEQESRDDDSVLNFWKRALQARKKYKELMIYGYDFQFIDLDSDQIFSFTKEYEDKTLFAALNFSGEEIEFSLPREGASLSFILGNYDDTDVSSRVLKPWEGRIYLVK

Row | SMILES | body weight ([1]; Day 1) | body weight ([1]; Day 7) | body weight ([1]; Day 14) | body weight ([1]; Day 21) | body weight ([1]; Day 28) | Heart weight [2] | Kidney weight [2] | Liver weight [2] | Pancreas weight [2] | LDL [3] | S.Cholesterol [3] | S.Triglycerides [3] | HDL [3] | S.Creatinine [4] | SGPT(ALT) [4] | S.ALK.Phosphatase [4] | S.bilurubin [4] | Percent Inhibition (Mean ± SEM) ([5]; 31.25 μg/mL) | Percent Inhibition (Mean ± SEM) ([5]; 62.50 μg/mL) | Percent Inhibition (Mean ± SEM) ([5]; 500 μg/mL) | also measured
1 | COc1ccc(Cl)cc1C(=O)NCCc1ccc(S(=O)(=O)NC(=O)NC2CCCCC2)cc1 [Glibenclamide, glibenclamide, reference compound] | 235 ± 1.36 g | 236 ± 1.37 g | 239 ± 0.67 g | 244 ± 2.38 g | 249 ± 3.18 g | 0.90 ± 0.02 g | 0.99 ± 0.16 g | 9.21 ± 0.66 g | 0.84 ± 0.21 g | 34.16 ± 2.66 | 59.98 ± 0.99 | 112 ± 0.99 | 32.55 ± 2.35 | 0.43 ± 0.01 mg/dL | 37 ± 1.11 U/L | 125 ± 1.22 U/L | 0.81 ± 0.03 mg/dL |  |  |  | 
2 | CC(C)CCC[C@@H](C)[C@H]1CC[C@H]2[C@@H]3C=CC4=C[C@@H](OC(=O)c5ccccc5)CC[C@]4(C)[C@H]3CC[C@]12C [NtSt02, 4,6-cholestadien-3beta-ol, benzoate] |  |  |  |  |  |  |  |  |  |  |  |  |  |  |  |  |  | 46.84 ± 0.67% | 53.10 ± 2.05% | 74.99 ± 1.53% | Percent Inhibition (Mean ± SEM) ([5]; 125 μg/mL): 60.04 ± 0.86%; Percent Inhibition (Mean ± SEM) ([5]; 250 μg/mL): 64.32 ± 1.85%; IC50 ([5]; α-amylase): 46.73 µg/mL (≈ 95.6 µM); IC50 [6]: 223.43 µg/mL (≈ 457 µM); Percent Inhibition (Mean ± SEM) ([6]; 31.25 μg/mL): 28.52 ± 2.63%; Percent Inhibition (Mean ± SEM) ([6]; 62.50 μg/mL): 33.08 ± 1.17%; Percent Inhibition (Mean ± SEM) ([6]; 125 μg/mL): 42.99 ± 2.70%; Percent Inhibition (Mean ± SEM) ([6]; 250 μg/mL): 52.01 ± 1.07%; Percent Inhibition (Mean ± SEM) ([6]; 500 μg/mL): 59.12 ± 1.96%
3 | C[C@H]1O[C@H](O[C@H]2[C@H](O)[C@@H](O)[C@@H](O[C@H]3[C@H](O)[C@@H](O)C(O)O[C@@H]3CO)O[C@@H]2CO)[C@H](O)[C@@H](O)[C@@H]1N[C@H]1C=C(CO)[C@@H](O)[C@H](O)[C@H]1O (stereo partly drawn) [acarbose, reference compound] |  |  |  |  |  |  |  |  |  |  |  |  |  |  |  |  |  |  |  | 91.01 ± 1.36% | Percent Inhibition (Mean ± SEM) [7]: 92.65 ± 0.55%
4 | CCC(C=CC(C)C1CCC2C3C=CC4=CC(OC(C)=O)CCC4(C)C3CCC12C)C(C)C (stereo not drawn) [NtSt01, 3-β-Acetoxystigmasta-4,6,22-triene] | 238 ± 0.33 g | 240 ± 0.49 g | 242 ± 1.04 g | 245 ± 1.11 g | 246 ± 0.11 g | 1.04 ± 0.13 g | 1.01 ± 0.15 g | 9.83 ± 0.92 g | 0.92 ± 0.12 g | 48.85 ± 1.08 | 77.45 ± 1.72 | 125 ± 3.65 | 38.10 ± 1.64 | 0.6 ± 0.02 mg/dL | 32 ± 0.25 U/L | 134 ± 2.33 U/L | 0.72 ± 0.77 mg/dL | 62.35 ± 1.78% | 67.63 ± 2.51% | 80.03 ± 2.11% | potency relative to NtSt02 (from IC50 values) ([7]; α-glucosidase): three times more potent than NtSt02; Percent Inhibition (Mean ± SEM) ([5]; 125 μg/mL): 71.63 ± 0.92%; Percent Inhibition (Mean ± SEM) ([5]; 250 μg/mL): 75.52 ± 0.96%; IC50 ([5]; α-amylase): 4.17 µg/mL (≈ 9.21 µM); potency relative to NtSt02 (from IC50 values) ([5]; α-amylase): eleven folds more potent than NtSt02; IC50 [6]: 142.76 µg/mL (≈ 315 µM); Percent Inhibition (Mean ± SEM) ([6]; 31.25 μg/mL): 37.25 ± 2.66%; Percent Inhibition (Mean ± SEM) ([6]; 62.50 μg/mL): 42.53 ± 0.69%; Percent Inhibition (Mean ± SEM) ([6]; 125 μg/mL): 47.08 ± 2.41%; Percent Inhibition (Mean ± SEM) ([6]; 250 μg/mL): 55.79 ± 0.92%; Percent Inhibition (Mean ± SEM) ([6]; 500 μg/mL): 61.05 ± 2.05%; acute toxicity observation [8]: safe and no morbidity, mortality or irritation was observed
